From article PMC5477036, “Design and synthesis of biphenyl and biphenyl ether inhibitors of sulfatases” (Chemical Science, 2016)

Key:
Assay type in all cases: biochemical
Sulf-2 = molecular target: T1, Sulf-2 (Homo sapiens, UniProt Q8IWU5); experiment: Inhibition of Sulf-2-catalysed desulfation of 4-MUS to fluorescent MU; conditions: 1 mM compound; 4-MUS substrate; means of two or more determinations; read-out: Sulf-2% inh @ 1 mM
T1 construct: host or cells: 293T cells, transiently transfected
Experimental: (§1) Compounds were assayed for their ability to inhibit the Sulf-2-catalysed desulfation of 4-methylumbelliferyl sulfate (4-MUS) to the fluorescent 4-methylumbelliferone (MU). To determine their sulfatase selectivity, inhibition of aryl sulfatases A (ARSA) and B (ARSB) was also assessed. To date no suitable benchmark inhibitors of these sulfatase have been reported. […] In the majority of cases the presence of a substituent on the B-ring was detrimental to Sulf-2 inhibition when compared with unsubstituted biphenyl sulfamate 76. Aminosulfates 54 and 62 and carboxylic acid 15 retained potency. […] Compounds 8, 10, 15, 50 and 51 were also relatively potent ARSA inhibitors. […] Aminosulfates 56 and 63 were the best Sulf-2 inhibitors lacking a trichloroethylsulfamate group.
1 – Biological assay protocols
Compounds were screened using 4-MUS as a substrate for Sulf-2 according to a protocol described by Morimoto-Tomita et al.1 Briefly 293T cells were transiently transfected with pcDNA3.1/Myc-His(-)-HSulf-2 DNA (Addgene) and TransIT-LT1 Transfection Reagent (Mirus) using a transfection mixture at the ratio 1:3 (µg DNA:
µL transfection reagent) in Opti-MEM I reduced serum medium (Gibco). Conditioned medium containing Sulf-2 was collected after 3 days and bound to HIS-Select Nickel affinity gel (Sigma) overnight at 4 °C. Beads were washed three times with washing buffer containing 50 mM HEPES (pH 7.5), 300 mM NaCl, 0.05% Tween 20, followed by washing once with washing buffer containing no tween. Beads were suspended in 50 mM Hepes (pH 7.5) and used in inhibition assays. 20 μL of bead slurry was incubated with 1 mM compound (in DMSO) plus 10X reaction buffer (500 mM HEPES pH 7.5, 100 mM CaCl2) for 1 h at 37 °C. The reaction was started by the addition of 20 μL of 20 mM 4-MUS (final concentration of 8 mM) and incubated at 37 °C for 1 h. The reaction was stopped with 100 μL 1 M Tris buffer (pH 10.4) and read at 460 nm following excitation at 355 nm in FLUOstar Omega plate reader (BMG Labtech) using Omega data analysis software. […]

aryl sulfatase A (ARSA) = molecular target: T2, aryl sulfatase A (ARSA) (Homo sapiens, UniProt P15289); experiment: ARSA inhibition assay with 4-MUS substrate; conditions: 1 mM compound; 4-MUS substrate; means of two or more determinations; read-out: ARSA% inh @ 1 mM
T2 construct: purchased R & D Systems
T2 sequence (P15289 19-507): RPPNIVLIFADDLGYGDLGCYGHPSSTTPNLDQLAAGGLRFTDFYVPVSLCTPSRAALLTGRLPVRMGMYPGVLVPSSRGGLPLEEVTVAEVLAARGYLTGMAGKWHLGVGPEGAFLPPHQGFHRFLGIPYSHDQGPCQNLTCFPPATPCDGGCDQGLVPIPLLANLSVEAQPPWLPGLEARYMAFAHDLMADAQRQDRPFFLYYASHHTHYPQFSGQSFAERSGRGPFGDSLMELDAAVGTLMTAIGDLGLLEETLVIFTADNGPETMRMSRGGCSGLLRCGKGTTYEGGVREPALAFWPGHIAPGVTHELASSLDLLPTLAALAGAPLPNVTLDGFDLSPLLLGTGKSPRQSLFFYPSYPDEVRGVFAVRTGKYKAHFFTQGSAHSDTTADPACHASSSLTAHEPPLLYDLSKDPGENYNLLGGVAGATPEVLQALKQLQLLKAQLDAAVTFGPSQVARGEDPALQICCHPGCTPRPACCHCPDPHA
Experimental: as §1
(§2) 1 – Biological assay protocols […]
(§3) Omega data analysis software.
(§4) ARSA and ARSB assay protocols
(§5) Compounds were screened in a 96-well black plate (Sterilin) using 4-MUS as a substrate, using 50 μL reaction mixture containing 40 ng of the commercially available enzymes (ARSA or ARSB from R & D Systems), 50 mM HEPES (pH = 4.5), 10 mM CaCl2, 1 mM test compound (dissolved in DMSO; final concentration of DMSO in reaction = 2%), and H2O (45 μL). The assay mixture was incubated for 1 h at 37 °C, followed by addition of 5 μL of 4-MUS (Km = 1.6 mM for ARSA and 612 μM for ARSB), and incubation for a further 1 h at 37 °C. The reaction was stopped with 100 μL of 1 M Tris (pH = 10.5) and read at 460 nm following excitation at 355 nm in FLUOstar Omega plate reader (BMG Labtech) using Omega data analysis software.

aryl sulfatase B (ARSB) = molecular target: T3, aryl sulfatase B (ARSB) (Homo sapiens, UniProt P15848); experiment: ARSB inhibition assay with 4-MUS substrate; conditions: 1 mM compound; 4-MUS substrate; means of two or more determinations; read-out: ARSB% inh @ 1 mM
T3 construct: purchased R & D Systems
Experimental: as §1, §2, §3, §4, §5

T3 sequence (P15848 37-533, species assumed): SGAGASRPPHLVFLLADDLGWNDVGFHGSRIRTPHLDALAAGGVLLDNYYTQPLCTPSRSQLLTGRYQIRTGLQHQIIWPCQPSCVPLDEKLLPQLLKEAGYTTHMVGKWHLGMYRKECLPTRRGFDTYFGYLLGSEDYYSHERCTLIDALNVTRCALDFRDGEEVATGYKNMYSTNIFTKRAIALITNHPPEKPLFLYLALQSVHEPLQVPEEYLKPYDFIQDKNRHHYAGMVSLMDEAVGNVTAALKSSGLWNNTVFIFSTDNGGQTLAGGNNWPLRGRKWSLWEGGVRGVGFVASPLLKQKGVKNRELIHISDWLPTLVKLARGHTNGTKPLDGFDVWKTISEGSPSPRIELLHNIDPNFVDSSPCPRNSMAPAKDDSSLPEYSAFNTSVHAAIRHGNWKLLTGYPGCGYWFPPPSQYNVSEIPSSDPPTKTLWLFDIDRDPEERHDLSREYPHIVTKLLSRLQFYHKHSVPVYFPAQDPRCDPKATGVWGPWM
T1 sequence (Q8IWU5 25-870): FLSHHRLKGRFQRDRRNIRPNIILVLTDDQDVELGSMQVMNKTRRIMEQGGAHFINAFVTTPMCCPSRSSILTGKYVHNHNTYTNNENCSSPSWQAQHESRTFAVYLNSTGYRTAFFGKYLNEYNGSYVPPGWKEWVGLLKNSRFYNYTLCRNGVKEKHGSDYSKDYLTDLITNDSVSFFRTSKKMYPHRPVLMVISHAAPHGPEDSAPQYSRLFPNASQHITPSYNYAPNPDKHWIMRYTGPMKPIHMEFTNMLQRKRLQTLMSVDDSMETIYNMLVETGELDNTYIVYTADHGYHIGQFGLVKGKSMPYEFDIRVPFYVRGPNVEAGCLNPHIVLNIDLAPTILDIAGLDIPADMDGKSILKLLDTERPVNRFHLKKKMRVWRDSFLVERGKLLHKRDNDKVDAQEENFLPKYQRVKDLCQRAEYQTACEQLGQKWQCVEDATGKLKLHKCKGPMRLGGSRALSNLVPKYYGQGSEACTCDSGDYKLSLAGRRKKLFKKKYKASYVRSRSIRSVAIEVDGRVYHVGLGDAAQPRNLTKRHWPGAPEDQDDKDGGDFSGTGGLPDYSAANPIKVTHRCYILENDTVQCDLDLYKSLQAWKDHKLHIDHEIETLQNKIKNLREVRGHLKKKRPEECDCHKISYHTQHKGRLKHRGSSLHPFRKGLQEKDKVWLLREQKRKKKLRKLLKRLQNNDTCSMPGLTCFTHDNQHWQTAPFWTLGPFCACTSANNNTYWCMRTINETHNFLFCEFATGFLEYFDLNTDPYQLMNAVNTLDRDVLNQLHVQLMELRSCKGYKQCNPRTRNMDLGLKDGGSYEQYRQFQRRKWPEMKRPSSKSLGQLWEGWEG

| SMILES | inhibition at 1000 µM (Sulf-2) | inhibition at 1000 µM (aryl sulfatase A (ARSA)) | inhibition at 1000 µM (aryl sulfatase B (ARSB)) |
| --- | --- | --- | --- |
| O=S(=O)(Nc1cccc(-c2ccccc2)c1)OCC(F)(F)F [Compound 82] | 5% | 78% | 92% |
| O=S(=O)(Nc1ccccc1)OCC(Cl)(Cl)Cl [Compound 83] | 3% | 63% | 68% |
